Laboratory results from patent US20230265068A1, “TRANSIENT RECEPTOR POTENTIAL CANONICAL 3 INHIBITORS AND METHODS OF USE THEREOF” (University of Tennessee Research Foundation, priority 2020, published 2023).
Where two headings read alike, the source gives them in different places. Values belong to the compound of their own block, whether it stands above or below them.

Experiments:
[1] = maximum tolerated dose / in vivo toxicity study in mice; details: mouse, in vivo
Protocol: The in vivo study was performed in compliance with the NIH Animal Use Guidelines and protocol approved by the Institutional Animal Care and Use Committee (IACUC) at the University of Tennessee Health Science Center (UTHSC, Memphis, Tenn.). NSG mice at 8 weeks (n=2) and ICR mice at 12 weeks (n=3) were housed with a 12:12-hour light-dark cycle and fed a breeder chow diet. Daily IP injections of 200 mg/kg of compounds 22 or 79 were administered for five consecutive injections in five mice, respectively, which were followed to monitor the mortality rate. Body weights of the mice were recorded daily.
(§1) The metabolic stability of compound 22 was tested prior to the next phase of in vivo study. […] The maximum tolerated dose (MTD) study was subsequently performed to investigate its in vivo toxicity (FIGS. 4A and 4B). The second major limitation of Pyr3 is its toxicity due to its alkylating tail moiety. While replacing only the fast-metabolizing head ester group in Pyr3 with a stable amide (compound 79) improved metabolic stability, a single IP injection of compound 79 at 200 mg/kg killed all mice within 24 h.
Compound 79 is a metabolically stable version of Pyr3. Mice treated daily with compound 22 or compound 79 (n=5) for 5 consecutive days. All the mice were treated with either compound 22 or 79 at 200 mg/kg (IP). […]

TRPC3 [2] = target: T1, TRPC3 (Homo sapiens, UniProt Q13507); assay: whole-cell patch clamp of HEK293 cells transfected with hTRPC3, currents activated by GSK1702934A; type: cell-based; parameters: expressed in transfected cells; host or cells: HEK293 (CRL-1573), transient transfection, pMO vector; details: for inhibition at 10 µM: read-out: hTRPC3 % Inhibition at 10 μM (mean ± SEM); for IC50: agonist GSK1702934A, HEK293 whole-cell patch clamp, read-out: hTRPC3 IC50 (μM, mean ± SEM)
T1 sequence (Q13507 1-921): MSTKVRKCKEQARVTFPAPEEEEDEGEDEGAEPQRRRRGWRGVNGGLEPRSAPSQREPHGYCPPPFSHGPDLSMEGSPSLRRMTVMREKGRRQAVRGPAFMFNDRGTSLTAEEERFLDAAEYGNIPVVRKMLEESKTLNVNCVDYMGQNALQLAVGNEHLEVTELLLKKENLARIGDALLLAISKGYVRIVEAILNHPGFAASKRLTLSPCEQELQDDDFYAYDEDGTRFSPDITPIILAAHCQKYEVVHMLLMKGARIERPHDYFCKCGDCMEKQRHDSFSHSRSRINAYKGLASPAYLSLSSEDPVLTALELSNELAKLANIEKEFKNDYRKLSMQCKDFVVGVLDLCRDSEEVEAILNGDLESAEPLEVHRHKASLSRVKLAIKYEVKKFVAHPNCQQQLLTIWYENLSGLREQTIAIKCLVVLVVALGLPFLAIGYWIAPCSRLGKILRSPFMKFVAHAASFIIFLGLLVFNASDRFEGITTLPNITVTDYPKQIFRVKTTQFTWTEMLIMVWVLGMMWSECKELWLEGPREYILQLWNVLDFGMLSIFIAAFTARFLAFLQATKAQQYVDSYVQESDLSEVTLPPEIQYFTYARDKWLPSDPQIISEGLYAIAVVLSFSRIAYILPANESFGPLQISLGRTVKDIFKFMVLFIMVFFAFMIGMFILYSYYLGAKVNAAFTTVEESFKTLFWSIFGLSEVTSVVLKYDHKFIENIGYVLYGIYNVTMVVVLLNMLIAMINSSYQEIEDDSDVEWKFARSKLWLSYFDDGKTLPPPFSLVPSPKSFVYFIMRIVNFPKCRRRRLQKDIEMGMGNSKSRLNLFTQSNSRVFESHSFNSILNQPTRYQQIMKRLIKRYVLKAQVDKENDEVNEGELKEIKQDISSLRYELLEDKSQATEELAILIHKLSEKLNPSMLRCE
Protocol: Human embryonic kidney 293 (HEK293; catalog number CRL-1573) cells were cultured in Dulbecco's modified Eagle's medium (Invitrogen) supplemented with 10% fetal bovine serum and 1% penicillin-streptomycin at 37° C. and 5% CO2. Constructs cloned in pMO (a pcDNA3-modified vector) were co-transfected with GFP-pMO, using Lipofectamine 2000 (Invitrogen) according to the manufacturer's instructions. Macroscopic currents in the whole-cell patch clamp configuration were recorded 18-24 h post-transfection. The extracellular solution contained 140 mM NaCl, 6 mM KCl, 2 mM MgCl2, 10 mM HEPES, and 10 mM glucose (pH 7.4). Pipettes were made of borosilicate glass (outer diameter, 1.5 mm; inner diameter, 1.10 mm; Sutter Instruments) and fire-polished with a resistance between 2.8 and 4.0 megaohms when filled with an intracellular solution that contained 140 mM CsCl, 5 mM EGTA, and 10 mM HEPES, pH 7.2. Currents were recorded with a Multiclamp 700B amplifier (Molecular Devices) using a 1-s ramp from −100 to 100 mV. Agonist and antagonists perfused were dissolved in the bath solution prior experiments: TRP channel agonists Allyl isothiocyanate (AITC; TRPA1), capsaicin (TRPV1), and menthol (TRPM8) were obtained from Sigma, GSK1016790A (TRPV4) from Cayman chemicals, and GSK1702934A (TRPC3, TRPC6 and TRPC7) from Tocris Bioscience. Antagonist Pyr3 was obtained from Tocris Bioscience, all other antagonists were synthesized in house. Data were acquired with a sampling rate of 20 kHz, low-pass filtered (10 kHz), and analyzed offline using Clampfit v10.4.2.0 (Molecular Devices).
Electrophysiology results were expressed as means±SD. Data were plotted, and sigmoidal fitting was done using OriginPro (from OriginLab), with the following Boltzmann function:
Using the patch clamp technique in the whole-cell configuration, compounds were screened by challenging hTRPC3 overexpressing HEK293 cells with GSK1702934A to activate TRPC3 and each of the synthesized compounds (10 μM) individually in the presence of the agonist.
To avoid tachyphylaxis and determine the IC50 of compound 22, each point of the dose response curve (FIG. 1B) was done individually on a cell and exchanging coverslips between cells. […] FIGS. 1D-1I show the inhibition of TRPC3-mediated currents by compound 22 and Pyr3 (serving as the reference control). […] Similar results were obtained when OAG was used as the agonist (data not shown).

hippocampal neurons [3] = assay: neuroprotection against Aβ-containing conditioned medium (7PA2) in primary hippocampal neurons; type: cell-based, rat; details: 14 DIV neurons, 7PA2 medium, 16 hours, different concentrations
Protocol: To visualize dendritic spines, 14 DIV hippocampal neurons at low density (5,000 cells per 35 mm dish) were exposed to 7PA2 conditioned media (CM), which contains naturally secreted Aβ, or CHO control media or for 16 h, with or without cotreatment with the two inhibitor compounds, followed by immunocytochemistry with MAP2 and DAPI counterstaining.
(§2) To explore the potential biological effects of compound 22 in a TRPC3 related disease model, its neuroprotective ability in primary cultured neurons (14 DIV prepared from E17 rats as described) was evaluated. The effects on neuron dendritic morphology were measured by imaging. Mature hippocampal neurons (DIV=14) were treated with CHO control medium, or naturally secreted Aβ-containing conditioned medium (7PA2), or in combination with compound 22 or Pyr3 at different concentrations, for 16 hours, followed by immunocytochemistry using an antibody against MAP2 and DAPI (data not shown). […] Hippocampal neurons (DIV=14) were treated with compound 22 or Pyr3 alone at different concentrations, followed by immunocytochemistry staining with MAP2 and DAPI (data not shown).

[4] = metabolic stability in human liver microsomes; type: in vitro ADME; details: human liver microsomes
Protocol: as §1

TRPC3 [5] = target: T1, TRPC3; details: cited from earlier work
[6] = metabolic stability in rat liver microsomes; type: in vitro ADME; details: rat liver microsomes
Protocol: as §1

[7] = metabolic stability in mouse liver microsomes; type: in vitro ADME; details: mouse liver microsomes
Protocol: as §1

hippocampal neurons [8] = assay: toxicity of compound alone in hippocampal neuronal culture; type: cell-based, rat; details: compound alone at different concentrations
Protocol: as §2

[9] = 10 μM compound in presence of agonist GSK1702934A, HEK293 whole-cell peak current

Structure (SMILES): CCOC(=O)c1cnn(-c2ccc(-n3ccc(Cl)c(Br)c3=O)cc2)c1C(F)(F)F [Compound 8, Ethyl 1-(4-(3-bromo-4-chloro-2-oxopyridin-1(2H)-yl)phenyl)-5-(trifluoromethyl)-1H-pyrazole-4-carboxylate]
survival of treated mice [1]: alive

inhibition at 10 µM (TRPC3 [2]; [9]): 97.96 ± 0.83% | IC50 (TRPC3 [2]): 0.09 ± 0.02 µM
Structure (SMILES): CCNCc1cnn(-c2ccc(-n3ccc(Cl)c(Cl)c3=O)cc2)c1C(F)(F)F [Compound 74, 3,4-dichloro-1-(4-(4-((ethylamino)methyl)-5-(trifluoromethyl)-1H-pyrazol-1-yl)phenyl)pyridin-2(1H)-one]

inhibition at 10 µM (TRPC3 [2]; [9]): 33 ± 5.58%
Structure (SMILES): CCCC(N)c1cnn(-c2ccc(-n3ccc(Cl)c(Cl)c3=O)cc2)c1C(F)(F)F (stereo not drawn) [Compound 76, 1-(4-(4-(1-aminobutyl)-5-(trifluoromethyl)-1H-pyrazol-1-yl)phenyl)-3,4-dichloropyridin-2(1H)-one]

inhibition at 10 µM (TRPC3 [2]; [9]): 68.3 ± 2.11%
Structure (SMILES): CCOCc1cnn(-c2ccc(-n3ccc(Cl)c(Cl)c3=O)cc2)c1C(F)(F)F [Compound 78, 3,4-dichloro-1-(4-(4-(ethoxymethyl)-5-(trifluoromethyl)-1H-pyrazol-1-yl)phenyl)pyridin-2(1H)-one]

inhibition at 10 µM (TRPC3 [2]; [9]): 23.2 ± 1.23%
Structure (SMILES): CCNC(=O)c1cnn(-c2ccc(NC(=O)C(Cl)=C(Cl)Cl)cc2)c1C(F)(F)F [Compound 79, N-ethyl-1-(4-(2,3,3-trichloroacrylamido)phenyl)-5-(trifluoromethyl)-1H-pyrazole-4-carboxamide]

Structure (SMILES): CCOC(=O)c1cnn(-c2ccc(NC(=O)C(Cl)=C(Cl)Cl)cc2)c1C(F)(F)F [Pyr3, reference compound]
protection against Aβ-induced damage to dendrites (MAP2/DAPI) (hippocampal neurons [3]): protect against Aβ-induced damage to dendrites | half-life time [4]: less than 15 minutes | IC50 (TRPC3 [5]; literature ref 20, read-out: reported IC50 for suppression of TRPC3): 0.7 µM | half-life time [6]: less than 15 minutes | half-life time [7]: less than 15 minutes | hTRPC3 % Inhibition at 10 μM (mean ± SEM) (TRPC3 [2]; [9]): 91.72 ± 0.53% | IC50 (TRPC3 [2]): 0.53 ± 0.05 µM | toxicity in neuronal culture (hippocampal neurons [8]): lack of toxicity

Structure (SMILES): O=C(Nc1ccc(-n2ncc(C(=O)O)c2C(F)(F)F)cc1)C(Cl)=C(Cl)Cl [Pyr8]
TRPC3 inhibition (TRPC3 [5]; literature ref 21): little TRPC3 inhibition
